How the values were obtained:
hepatocarcinoma HepG2 [1] = assay: Safety, LDH test in HepG2; assay type: cell-based; details: 48 hours, vs Triton X-100
Experimental: (§1) In order to test the safety of the compounds, both normal human cells were used: keratinocytes (HaCaT), fibroblasts (BJ), primary melanocytes that occur in the skin, as well as human cancer cells: the hepatocarcinoma line HepG2 and the neuroblastoma line SH-SY5Y, which are considered a model for the assessment of hepatocytotoxicity and neurocytotoxicity. The concentrations of the tested compounds in the range of […] were used in the studies. The cell lines used in the research were purchased from the American Type Culture Collection (ATCC) and were cultured in media recommended by the manufacturer with the addition of FBS and antibiotics in an incubator ensuring appropriate culture conditions, i.e. humidity, temperature and CO2 concentration. Cells were seeded into multiwell plates and incubated with the test compounds for 48 hours. After this time, MTT and LDH tests were performed to assess cell viability. The MTT test is based on the ability to transform the substrate: [3-(4,5-dimethyl-2-thiazolyl)-2,5-diphenyl-2H-tetrazolium bromide into a colored product only by living cells. The absorbance at 570 nm, which corresponds to the absorption maximum for the product, is directly proportional to cell viability. The LDH test is based on testing the activity of the enzyme lactate dehydrogenase in the culture medium, which is released from cells as a result of damage to the cell membrane, e.g. as a result of cell death. Triton X-100 was used as a positive control in the test. The determination is colorimetric, the substrate is transformed by the released enzyme into a colored product, an increase in absorbance indicates a larger amount of the released enzyme, and thus confirms greater damage to cell membranes. Tables 7 and 8 present the results obtained, which correspond to the viability of cells incubated with the compounds in relation to the viability of cells constituting a control sample, i.e. incubated with the solvent (DMSO) at the same concentration as in the case of the groups tested in the MTT test or in relation to the results obtained for the Triton X-100 positive control in the LDH test. They indicate that the compounds are safe at the concentrations tested.

keratinocytes (HaCaT) = assay: Safety, MTT test in keratinocytes; assay type: cell-based; details: 48 hours
Experimental: as §1

fibroblasts (BJ) = assay: Safety, LDH test in fibroblasts; assay type: cell-based; details: 48 hours, vs Triton X-100
Experimental: as §1

hepatocarcinoma HepG2 [2] = assay: Safety, MTT test in HepG2; assay type: cell-based; details: 48 hours
Experimental: as §1

S. typhimurium TA1535 = assay: Ames microplate test, TA1535;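 also: bacteria exposed 90 min at 37 °C in exposure medium, then 48 h in indicator medium in 384-well plates, yellow (revertant) wells counted per condition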
Experimental: The study used the Ames microplate test (Ames MPF™ Penta 2 by Xenometrix, Allschwil, Switzerland). Growth medium, exposure medium, indicator medium, positive controls, hepatic microsomal fraction, NADP, glucose-6-phosphate, Salmonella typhimurium and Escherichia coli strains were components of the purchased experimental kit. Bacteria were grown overnight in growth medium. They were then exposed to the test compound at the appropriate concentration in exposure medium without or with the rat microsomal fraction S9 in 24-well plates for 90 min at 37° C. with shaking. Then, indicator medium was added to the wells and pipetted into 384-well plates, which were incubated for 48 hours at 37° C. without shaking. Results were assessed by counting the wells in which the medium turned yellow for each experimental condition.

primary melanocytes = assay: Safety, MTT test in primary melanocytes; assay type: cell-based; details: 48 hours
Experimental: as §1

neuroblastoma SH-SY5Y = assay: Safety, MTT test in SH-SY5Y; assay type: cell-based; details: 48 hours
Experimental: as §1

CHO-K1 cells = assay: Cytotoxicity (MTT) in CHO-K1 cells before the micronucleus test; assay type: cell-based, Chinese hamster; details: 24 hours
Experimental: The assay was performed using a Chinese hamster ovary cell line (CHO-K1) purchased from the American Type Culture Collection (ATCC). The cells were cultured in F-12K medium with the addition of 10% fetal bovine serum (FBS) and antibiotics (streptomycin/penicillin) in an incubator at 37° C. and 5% CO2 concentration). Before the actual micronucleus test, a cytotoxicity assessment was performed to ensure that the actual test was performed only at safe concentrations. For this purpose, cells were transferred to 96-well plates and incubated with the tested compounds for 24 hours. After this time, the MTT test was performed and cell viability was assessed in comparison to the control group (cells cultured with DMSO at the same concentration as in the case of the tested samples).

[3] = tested on: human reconstructed epidermis model EpiDerm; assay: Extended skin irritation test in reconstructed human epidermis EpiDerm; assay type: cell-based; details: 1.0% in 50% PEG (10 μL)
Experimental: Extended Skin Irritation Tests on Reconstructed Human Epidermis-Exposure Time Extended to 7 Days.
In order to perform extended skin irritation (safety) tests on the reconstructed human epidermis, the exposure time to the tested compounds was extended to 2 and 7 days in the human reconstructed epidermis model EpiDerm™ from MatTek. The epidermis was cultured according to the manufacturer's recommendations, using appropriate multi-well plates and culture media. Solutions of the tested compounds were applied to the epidermis using a positive displacement pipette and distributed using a sterile glass bulb headed Pasteur pipette. […] The epidermis was cultured in an incubator ensuring appropriate humidity, temperature (37° C.) and CO2 concentration (5%). The medium was replaced daily. After an appropriate incubation time, i.e. 2 days or 7 days, the epidermis was rinsed with sterile DPBS and incubated with MTT (Thiazolyl Blue Tetrazolium bromide) solution at 37° C. for 3 hours. After this time, a purple color of formazan was observed, correlated with tissue viability. […] Moreover, in the medium collected after the first 24 hours of EpiDerm epidermis culture, the level of interleukin 1α (Il-1α), which is a mediator of inflammation, was determined. Its level correlates with the unfavorable (irritating) effect of the tested substances on the epidermis. The level of IL-1α was determined using the Cayman Elisa test.

S. typhimurium TA100 = assay: Ames microplate test, TA100; assay type: cell-based, Salmonella typhimurium

O=C(/C=C/c1ccccc1)NCCCCCO [Compound A-133, (2E)-N-(5-hydroxypentyl)-3-phenylprop-2-enamide]
LDH, Hepatocarcinoma HepG2 (hepatocarcinoma HepG2 [1]; 100 μM): 5.31 percentage of positive control
LDH, Hepatocarcinoma HepG2 (hepatocarcinoma HepG2 [1]; 150 μM): 7.07 percentage of positive control
LDH, Hepatocarcinoma HepG2 (hepatocarcinoma HepG2 [1]; 200 μM): 9.65 percentage of positive control
LDH, Hepatocarcinoma HepG2 (hepatocarcinoma HepG2 [1]; 250 μM): 16.13 percentage of positive control
MTT, Keratinocytes (HaCaT) (keratinocytes (HaCaT); 100 μM): 101.35 ± 2.17 % of solvent control
MTT, Keratinocytes (HaCaT) (keratinocytes (HaCaT); 150 μM): 101.40 ± 2.08 % of solvent control
MTT, Keratinocytes (HaCaT) (keratinocytes (HaCaT); 200 μM): 101.51 ± 2.49 % of solvent control
MTT, Keratinocytes (HaCaT) (keratinocytes (HaCaT); 250 μM): 95.53 ± 2.80 % of solvent control
LDH, Fibroblasts (BJ) (fibroblasts (BJ); 100 μM): 5.00 percentage of positive control
LDH, Fibroblasts (BJ) (fibroblasts (BJ); 150 μM): 4.47 percentage of positive control
LDH, Fibroblasts (BJ) (fibroblasts (BJ); 200 μM): 14.72 percentage of positive control
LDH, Fibroblasts (BJ) (fibroblasts (BJ); 250 μM): 28.31 percentage of positive control
MTT, Hepatocarcinoma HepG2 (hepatocarcinoma HepG2 [2]; 100 μM): 104.96 ± 7.60 % of solvent control
MTT, Hepatocarcinoma HepG2 (hepatocarcinoma HepG2 [2]; 150 μM): 100.66 ± 7.39 % of solvent control
MTT, Hepatocarcinoma HepG2 (hepatocarcinoma HepG2 [2]; 200 μM): 99.09 ± 1.60 % of solvent control
MTT, Hepatocarcinoma HepG2 (hepatocarcinoma HepG2 [2]; 250 μM): 98.92 ± 2.34 % of solvent control
Increase in the number of yellow wells compared to the reference level, TA1535 (S. typhimurium TA1535; 0.5 mM, + S9): 0.47
Increase in the number of yellow wells compared to the reference level, TA1535 (S. typhimurium TA1535; 0.5 mM, without S9): 0.92
Increase in the number of yellow wells compared to the reference level, TA1535 (S. typhimurium TA1535; 1.0 mM, + S9): 0.23
Increase in the number of yellow wells compared to the reference level, TA1535 (S. typhimurium TA1535; 1.0 mM, without S9): 0.55
Increase in the number of yellow wells compared to the reference level, TA1535 (S. typhimurium TA1535; 2.0 mM, + S9): 0.35
Increase in the number of yellow wells compared to the reference level, TA1535 (S. typhimurium TA1535; 2.0 mM, without S9): 1.10
MTT, Primary melanocytes (primary melanocytes; 100 μM): 103.69 ± 2.57 % of solvent control
MTT, Primary melanocytes (primary melanocytes; 150 μM): 101.88 ± 2.47 % of solvent control
MTT, Primary melanocytes (primary melanocytes; 200 μM): 97.05 ± 2.96 % of solvent control
MTT, Primary melanocytes (primary melanocytes; 250 μM): 88.88 ± 2.26 % of solvent control
MTT, Neuroblastoma SH-SY5Y (neuroblastoma SH-SY5Y; 100 μM): 101.50 ± 3.33 % of solvent control
MTT, Neuroblastoma SH-SY5Y (neuroblastoma SH-SY5Y; 150 μM): 100.75 ± 3.01 % of solvent control
MTT, Neuroblastoma SH-SY5Y (neuroblastoma SH-SY5Y; 200 μM): 100.62 ± 5.99 % of solvent control
MTT, Neuroblastoma SH-SY5Y (neuroblastoma SH-SY5Y; 250 μM): 100.41 ± 1.87 % of solvent control
% Viability [mean], CHO-K1 (CHO-K1 cells; 100 μM): 94.6%
% Viability [mean], CHO-K1 (CHO-K1 cells; 150 μM): 97.2%
% Viability [mean], CHO-K1 (CHO-K1 cells; 200 μM): 89.1%
Viability [% of control, mean ± SD] 2 days [3]: 107.19 ± 7.45 % of control
Viability [% of control, mean ± SD] 7 days [3]: 107.26 ± 21.82 % of control
Il-1α in culture medium ([3]; medium after first 24 hours): 34.99 ± 1.17 pg/mL
Increase in the number of yellow wells compared to the reference level, TA100 (S. typhimurium TA100; 0.5 mM, + S9): 0.83
Increase in the number of yellow wells compared to the reference level, TA100 (S. typhimurium TA100; 0.5 mM, without S9): 0.60
Increase in the number of yellow wells compared to the reference level, TA100 (S. typhimurium TA100; 1.0 mM, + S9): 0.78
Increase in the number of yellow wells compared to the reference level, TA100 (S. typhimurium TA100; 1.0 mM, without S9): 1.03
Increase in the number of yellow wells compared to the reference level, TA100 (S. typhimurium TA100; 2.0 mM, + S9): 0.61
Increase in the number of yellow wells compared to the reference level, TA100 (S. typhimurium TA100; 2.0 mM, without S9): 0.57

— US20250263376A1, “(E)-N-CINNAMOYLAMINOALKANOLS WITH MELANOGENESIS INHIBITORY ACTIVITY” (Uniwersytet Jagiellonski, priority 2024, published 2025)
